Source: publication PMC10993414, “Water Quality Monitoring with the Multiplexed Assay MitoOxTox for Mitochondrial Toxicity, Oxidative Stress Response, and Cytotoxicity in AREc32 Cells” (Environmental Science & Technology, 2024)
Like-named read-outs stand apart in the source and are kept apart here.

What was measured:
AREc32 cells [1] = system: AREc32 cells
[2] = system: mitochondrial membrane potential (MMP) in AREc32 cells; assay: Disruption of mitochondrial membrane potential (m-MPI red/green ratio), MitoOxTox; conditions: for EC10: MMP, AREc32, 24 h; for SRcytotoxicity: specificity ratio of MMP effect: IC10 (ImageXpress)/EC10 (eq 4)
[3] = system: mitochondrial membrane potential (MMP) in AREc32 cells
AREc32 cells [4] = system: AREc32 cells; remark: listed apart in the source
[5] = system: Nrf2-mediated oxidative stress response pathway (ARE) in AREc32 cells; assay: cells; conditions: Arec32, 24 h, read-out: Oxidative stress response ECIR1.5 (M)
AREc32 cells [6] = assay: Cytotoxicity with ImageXpress high-content imaging, MitoOxTox; conditions: AREc32, 24 h exposure; for Cytotoxicity ImageExpress IC10: 10% reduction in cell viability; for Cytotoxicity ImageExpress log(IC10 (M)): logarithm of IC10, Corning plates
AREc32 cells [7] = assay: Cytotoxicity (cell confluency) with IncuCyte S3 live cell imaging, MitoOxTox; conditions: AREc32, 24 h exposure; for Cytotoxicity Incucyte IC10: 10% reduction in cell viability
[8] = system: Nrf2-mediated oxidative stress response pathway (ARE) in AREc32 cells
[9] = cited from earlier work
[10] = 10% reduction of MMP, AREc32, 24 h exposure
[11] = logarithm of EC10, AREc32, 24 h exposure
[12] = effect concentration leading to induction ratio 1.5, AREc32, 24 h exposure

Row | Compound | SRcytotoxicity ([3]; human) | EC (induction ratio 1.5) [5] [M] | Cytotoxicity ImageExpress IC10 (AREc32 cells [6]) [µM] | Cytotoxicity ImageExpress log(IC10 (M)) (AREc32 cells [6]) | MMP inhibition EC10 [2, 10] [µM] | MMP inhibition log(EC10 (M)) [2, 11] [M] | Cytotoxicity Incucyte IC10 (AREc32 cells [7]) [µM] | log Kow [L/L] ([9]; experimental, ref PhysPropNCCT) | Cytotoxicity ImageExpress IC10 (AREc32 cells [1]; human, 24 h) [µM] | Cytotoxicity Incucyte IC10 (AREc32 cells [4]; human, 24 h) [µM] | other results
1 | Oc1c(Cl)cc(Cl)c(Cl)c1Cc1c(O)c(Cl)cc(Cl)c1Cl [Hexachlorophene] | 38.6 | > 9.31e-05 | – | – | – | – | – | – | – | – | Cytotoxicity ImageExpress IC10 (AREc32 cells [1]; human): 10.7 µM; Cytotoxicity ImageExpress log(IC10 (M)) (AREc32 cells [1]; human): -4.97 M; MMP inhibition EC10 [2]: 0.276 µM; MMP inhibition log(EC10 (M)) [2]: -6.56 M; Cytotoxicity Incucyte IC10 (AREc32 cells [4]; human): 5.46 µM
2 | COc1cc2c(cc1OC)[C@@H]1C(=O)c3ccc4c(c3O[C@@H]1CO2)C=CC(C)(C)O4 [Deguelin] | 2215 | > 4.08e-05 | 28.8 | -4.54 M | 0.013 | -7.89 | 17.7 | – | – | – | –
3 | CO/C=C(/C(=O)OC)c1ccccc1COc1cccc(C(F)(F)F)n1 [Picoxystrobin] | – | – | 80.1 | -4.10 M | 1.35 | -5.87 | 77.7 | – | – | – | SRcytotoxicity [3]: 59.5; Oxidative stress response ECIR1.5 [8, 12]: > 139 µM
4 | Cc1ccccc1C(=O)Nc1cccc(OC(C)C)c1 [Mepronil] | – | > 0.000153 | – | – | 31.2 | -4.51 | – | 3.66 | 72.9 | 58.7 | Cytotoxicity ImageExpress log(IC10 (M)) (AREc32 cells [1]; human, 24 h): -4.14 M
5 | Tributyltin chloride | – | – | – | – | – | – | – | – | – | – | MMP inhibition EC10 [2]: 0.0145 µM; MMP inhibition log(EC10 (M)) [2]: -7.84 M; Oxidative stress response ECIR1.5 [8]: > 1.23 µM
6 | Oligomycin A | – | – | – | – | 0.000235 | -9.63 | – | – | – | – | EC10 [2]: 0.00024 µM; Oxidative stress response ECIR1.5 [8, 12]: > 12.7 µM
7 | COC(=O)N(OC)c1ccccc1COc1ccn(-c2ccc(Cl)cc2)n1 [Pyraclostrobin] | 295.0 | > 0.000103 | 61.4 | -4.21 M | 0.208 | -6.68 | 82.4 | 3.99 | – | – | –
8 | C=C(C)[C@H]1Cc2c(ccc3c2O[C@@H]2COc4cc(OC)c(OC)cc4[C@@H]2C3=O)O1 [Rotenone] | 46 | > 6.57e-07 | – | – | 0.00531 | -8.27 | – | 4.1 | – | – | Cytotoxicity ImageExpress IC10 (AREc32 cells [1]; human): 0.242 µM; Cytotoxicity ImageExpress log(IC10 (M)) (AREc32 cells [1]; human): -6.62 M; Cytotoxicity Incucyte IC10 (AREc32 cells [4]; human): 0.212 µM
9 | CO/C=C(/C(=O)OC)c1ccccc1Oc1cc(Oc2ccccc2C#N)ncn1 [Azoxystrobin] | – | – | > 105 | no cytotoxicity | 15.9 | -4.80 | > 105 | 2.50 | – | – | Cytotoxicity Incucyte log(IC10 (M)) (AREc32 cells [7]; logarithm of IC10, Corning plates): no cytotoxicity; Oxidative stress response ECIR1.5 [8, 12]: > 105 µM
10 | CCCCOCCO [2-Butoxyethanol] | – | – | – | – | – | – | – | – | – | – | log Kow [L/L] ([9]; ref Vaes et al. 1997b): 0.83 L/L; EC10 [2]: 10700 µM; MMP inhibition log(EC10 (M)) [3, 11]: -1.97 M
11 | Cc1ccc(-c2c(Cl)nc(C#N)n2S(=O)(=O)N(C)C)cc1 [Cyazofamid] | – | > 5.41e-05 | – | – | 36.7 | -4.44 | – | – | > 54.1 | > 54.1 | Cytotoxicity ImageExpress log(IC10 (M)) (AREc32 cells [1]): no cytotoxicity; Cytotoxicity Incucyte log(IC10 (M)) (AREc32 cells [4]): no cytotoxicity
12 | CSC1=N[C@@](C)(c2ccccc2)C(=O)N1Nc1ccccc1 [Fenamidone] | – | > 0.000239 | – | – | 13.1 | -4.88 | – | – | 125 | 118 | Cytotoxicity ImageExpress log(IC10 (M)) (AREc32 cells [1]; human, 24 h): -3.90 M; SRcytotoxicity ([3]; human, 24 h): 9.5
13 | CC(C)(C)c1ccc(CSc2cnn(C(C)(C)C)c(=O)c2Cl)cc1 [Pyridaben] | – | > 0.000161 | – | – | 0.00273 | -8.56 | – | 6.37 | > 161 | 51.4 | Cytotoxicity ImageExpress log(IC10 (M)) (AREc32 cells [1]): no cytotoxicity
14 | N#CC(C#N)=NNc1ccc(OC(F)(F)F)cc1 [Carbonyl cyanide 4-(trifluoromethoxy)phenylhydrazone] | – | > 6.32e-05 | 1.75 | -5.76 M | 0.0768 | -7.11 | 0.824 | 3.68 | – | – | SRcytotoxicity [2]: 22.8
15 | CON=C(C(=O)OC)c1ccccc1CON=C(C)c1cccc(C(F)(F)F)c1 [Trifloxystrobin] | – | > 0.000123 | – | – | 4.11 | -5.39 | – | 4.50 | > 123 | > 123 | Cytotoxicity ImageExpress log(IC10 (M)) (AREc32 cells [1]): no cytotoxicity; Cytotoxicity Incucyte log(IC10 (M)) (AREc32 cells [4]): no cytotoxicity
16 | CC(C)Oc1cccc(NC(=O)c2ccccc2C(F)(F)F)c1 [Flutolanil] | 5.5 | > 0.000226 | – | – | 25.2 | -4.60 | – | 3.7 | – | – | Cytotoxicity ImageExpress IC10 (AREc32 cells [1]; human): 138 µM; Cytotoxicity ImageExpress log(IC10 (M)) (AREc32 cells [1]; human): -3.86 M; Cytotoxicity Incucyte IC10 (AREc32 cells [4]; human): 106 µM
17 | CCCCCc1ccc(O)cc1 [4-Pentylphenol] | – | > 0.000385 | 87.6 | -4.06 M | 6.16 | -5.21 | 57.1 | – | – | – | log Kow [L/L] ([9]; ref Vaes et al. 1997b): 4.24 L/L; SRcytotoxicity [2]: 14.2
18 | CC1=C(C(=O)Nc2ccccc2)SCCO1 [Carboxin] | – | 0.00014 | – | – | 152 | -3.82 | – | 2.14 | > 429 | 1080 | Cytotoxicity ImageExpress log(IC10 (M)) (AREc32 cells [1]): no cytotoxicity; EC10 [2]: 152 µM; activation of the oxidative stress response (in words) ([8]; AREc32): activated
19 | CNC(=O)/C(=N/OC)c1ccccc1COc1cc(C)ccc1C [Dimoxystrobin] | – | – | – | – | 0.439 | -6.36 | – | – | – | – | Cytotoxicity ImageExpress IC10 (AREc32 cells [1]): 142 µM; Cytotoxicity ImageExpress log(IC10 (M)) (AREc32 cells [1]): -3.85 M; SRcytotoxicity [3]: 324; Cytotoxicity Incucyte IC10 (AREc32 cells [4]): 129 µM; Oxidative stress response ECIR1.5 [8, 12]: > 206 µM
20 | CCc1nn(C)c(C(=O)NCc2ccc(C(C)(C)C)cc2)c1Cl [Tebufenpyrad] | 33496 | > 0.000214 | 192 | -3.72 M | 0.00573 | -8.24 | 157 | 4.61 | – | – | –
